From patent publication US20180000794A1, “COMPOSITION FOR PREVENTION OR TREATMENT OF BRONCHIAL ASTHMA COMPRISING PKR INHIBITOR AS ACTIVE INGREDIENT” (INDUSTRIAL COOPERATION FOUNDATION CHONBUK NATIONAL …, priority 2015, published 2018)

Columns and labels:
Type in all cases: in vivo, mouse
[1] = test system: mice with neutrophilic severe asthma; experiment: Peribronchitis and perivascular inflammation in lung tissues (H&E histology) of mice with neutrophilic severe asthma; settings: C57BL/6 mice, OVA+LPS-induced asthma; H&E stained lung sections, optical microscope 20×; FIG. 2
From the text: (§1) 8-week old female C57BL/6 mice were purchased from Orient Bio (Sungnam, Korea) and used as experimental animals. Experimental groups were divided into 4 groups and 5 C57BL/6 mice were assigned to each group. Animals in one experimental group were inhaled with saline and treated with vehicle. Animals in the other three experimental groups were sensitized with ovalbumin (OVA) and lipopolysaccharide (LPS), followed by inhalation of ovalbumin to induce asthma. Animals with induced asthma in one experimental group were treated with vehicle 1 hour before the first inhalation of ovalbumin and 6 hours after the last inhalation of ovalbumin. Animals in the other two experimental groups were intraperitoneally administered with 60 μg/kg and 600 g/kg of the PKR inhibitor [6,8-Dihydro-8-(1H-imidazol-5-ylmethylene)-7H-pyrrolo[2,3-g]benzothiazol-7-one] a total of two times, 1 hour before the first inhalation of ovalbumin and 6 hours after the last inhalation of ovalbumin. […]

[2] = test system: mice with neutrophilic severe asthma; experiment: Bronchial hyperresponsiveness (Rrs) to aerosol methacholine in mice with neutrophilic severe asthma; settings: methacholine 5.0 to 50 mg/ml by nebulizer; compared to the group treated with vehicle only; FIG. 3
From the text: as §1, with “ovalbumin.” for “ovalbumin. Animals in the other two experimental groups were intraperitoneally administered with 60 μg/kg and 600 g/kg of the PKR inhibitor [6,8-Dihydro-8-(1H-imidazol-5-ylmethylene)-7H-pyrrolo[2,3-g]benzothiazol-7-one] a total of two times, 1 hour before the first inhalation of ovalbumin and 6 hours after the last inhalation of ovalbumin.”
In order to identify the effects of the PKR inhibitor of the present invention on bronchial hyperresponsiveness in mouse models with neutrophilic severe asthma, aerosol methacholine was administered into the airways of mice, and then the changes in airway function were measured. […] At the same time, the mice were administered with methacholine through the ventilator while gradually increasing the dose from 5.0 mg/ml to 50 mg/ml using a nebulizer, and the bronchial hyperresponsiveness (Rrs) was continuously measured. The bronchial hyperresponsiveness was assessed as a percentage of the basal value when the maximum of Rrs values measured at each methacholine concentration was administered to saline control, and the results are shown in FIG. 3.

[3] = test system: IL-4, IL-5, IL-13, IL-17, KC; experiment: Cytokines and chemokines in lung tissues by Western blotting, mice with neutrophilic severe asthma; settings: Western blotting of lung tissue proteins; OVA+LPS-induced asthma; FIGS. 4A to 4E
From the text: as §1, with “ovalbumin.” for “ovalbumin. Animals in the other two experimental groups were intraperitoneally administered with 60 μg/kg and 600 g/kg of the PKR inhibitor [6,8-Dihydro-8-(1H-imidazol-5-ylmethylene)-7H-pyrrolo[2,3-g]benzothiazol-7-one] a total of two times, 1 hour before the first inhalation of ovalbumin and 6 hours after the last inhalation of ovalbumin.”
Quantitation of cytokines and chemokines was confirmed by Western blotting of the proteins in lung tissues. […] Then, the samples were loaded on SDS-PAGE gel and quantitated using an anti-IL-4 antibody (Serotec, UK) against IL-4, an anti-IL-5 antibody (SantaCruz Biotechnology, USA) against IL-5, anti-IL-13 and anti-IL-17 antibodies (R&D Systems, USA) against IL-13 and IL-17, and an anti-KC antibody against keratinocyte-induced chemokine (KC) (BioVision, USA), and the results are shown in FIGS. 4A to 4E.

With `O=C1Nc2ccc3ncsc3c2/C1=C/c1c[nH]cn1` [PKR inhibitor, 6,8-Dihydro-8-(1H-imidazol-5-ylmethylene)-7H-pyrrolo[2,3-g]benzothiazol-7-one] the “level of airway inflammation in lung tissues” value [1] was “significantly reduced”, the “Rrs values (bronchial hyperresponsiveness)” value [2] was “significantly reduced” and the “airway resistance dose response curves” value [2] was “shifted to the right”. For the same compound, the “cytokines and chemokines in lung tissues (IL-4, IL-5, IL-13, IL-17, KC)” value [3] was “reduced”.
